Measurements: ChEMBL document CHEMBL1157952, “Neocimicigenosides A and B, cycloartane glycosides from the rhizomes of Cimicifuga racemosa and their effects on CRF-stimulated ACTH secretion from AtT-20 cells” (2006)

Test system: AtT20
Experiment: Induction of corticotropin releasing factor-stimulated ACTH secretion in mouse AtT20 cells
Type: functional

SMILES	Activity [ng/mL]
CC(=O)O[C@H]1[C@H]2C[C@@H](C)[C@H]3[C@](O2)(OC1(C)C)[C@H](O)[C@@]1(C)[C@@H]2CC[C@H]4C(C)(C)[C@@H](O[C@@H]5OC[C@H](O)[C@H](O)[C@H]5O)CC[C@@]45C[C@@]25CC[C@]31C [NEOCIMICIGENOSIDE A]	7
CC(=O)O[C@H]1[C@H]2C[C@@H](C)[C@H]3[C@](O2)(OC1(C)C)[C@H](O)[C@@]1(C)[C@@H]2CC[C@H]4C(C)(C)[C@@H](O[C@@H]5OC[C@@H](O)[C@H](O)[C@H]5O)CC[C@@]45C[C@@]25CC[C@]31C [NEOCIMICIGENOSIDE B]	7.2
